# Values quoted from earlier work, collected in patent US9028802B2, “Method of differentially diagnosing different types of dementia” (Koninklijke Philips Electronics N.V., priority 2007, dated 2015).
# Biological target: T1, Dopamine Transporter (DAT) (Homo sapiens, UniProt Q01959)
# T1 construct: those areas of the brain in which Dopamine Transporters (DAT) are localized, such as the nigrostriatum; from tissue; host or cells: brain (nigrostriatum) of the living subject, in vivo SPECT
# Conditions: SPECT tracer, time point x2 after administration; 'typically'
# T1 sequence (Q01959 whole entry): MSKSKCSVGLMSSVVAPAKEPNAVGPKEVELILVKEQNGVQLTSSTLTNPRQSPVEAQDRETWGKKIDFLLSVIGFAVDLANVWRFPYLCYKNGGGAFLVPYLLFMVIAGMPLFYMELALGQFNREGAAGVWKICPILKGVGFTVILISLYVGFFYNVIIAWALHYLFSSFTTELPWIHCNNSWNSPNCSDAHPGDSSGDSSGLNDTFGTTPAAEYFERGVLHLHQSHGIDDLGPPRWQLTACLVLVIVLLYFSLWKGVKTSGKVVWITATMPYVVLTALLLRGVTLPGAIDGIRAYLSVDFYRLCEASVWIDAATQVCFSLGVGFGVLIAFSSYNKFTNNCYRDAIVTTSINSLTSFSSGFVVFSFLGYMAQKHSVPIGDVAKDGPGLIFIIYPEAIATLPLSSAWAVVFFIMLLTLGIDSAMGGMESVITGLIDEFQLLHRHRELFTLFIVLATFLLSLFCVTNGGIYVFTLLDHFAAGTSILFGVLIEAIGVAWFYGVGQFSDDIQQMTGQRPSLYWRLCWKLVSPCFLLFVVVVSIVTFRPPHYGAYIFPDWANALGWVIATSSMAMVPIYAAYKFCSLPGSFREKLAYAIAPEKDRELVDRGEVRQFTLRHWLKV
compound,measurement,value
COC(=O)C1C2CCC(C[C@@H]1c1ccc(I)cc1)N2CCCF (stereo partly shown) [Datscan],time period after which association with Dopamine Transporters is observed,three to four
